Here are results for seven molecules from patent US7067533B2, “Aminophenoxyacetamide derivatives and pharmaceutical composition containing thereof” (Daiichi Asubio Pharma Co., Ltd., priority 2000, dated 2006).

For assay [1], the system named is primary cultures (neurons) from cerebral cortices of fetal Wistar rats. Briefly: Biological Test 1: neuroprotective effect against glutamate induced neuronal cell death (MTT). Type of assay: cell-based, rat. The note with it: Compound: 1 μM; glutamate 1 mM; control group = 100%. The method, then:
Cultures were maintained at 37 C. in a 90% air/10% CO2 humidified incubator. Glutamate was added to the culture at day 4 to the final concentration of 1 mM. […] MTT was dissolved in phosphate buffered saline (PBS, pH 7.4) at 5 mg/ml and filtered to sterilize and remove a small amount of insoluble residue present in some batches of MTT, and added to the cultures at a final concentration of 0.5 mg/ml.
The test compounds (1 μM) was added 24 hrs prior to glutamate treatment and simultaneously with glutamate.
Survival rate of living cells (%) =[(test compound group—glutamic acid treated group)÷(control group—glutamic acid treated group)]×100

The test system is the same in assay [2]. Briefly: Biological Test 2: antagonism of the neuroprotective effect by MTA treatment (MTT). Type of assay: cell-based, rat. The note with it: 0.75 mM MTA added 30 minutes before test compound, glutamate. The method, then:
This biological test is performed to determine whether the neuroprotective effect of the test compounds is due to the activation of receptors of physiological active substances or not, by using antagonistic test for neutralizing antibody and Inhibitor for FGF, NT-3, NT-4/5, BDNF, IGF-I/II, NGF, PDGF and estrogen, respectively.
Chem., 268, 4244 (1993)]. Therefore, the neuroprotective effect of the test compounds is inhibited by treatment of MTA, this effect is depended by the signal transfer effect through the phosphorylation of FGF receptor.
The inhibitors of the various kinds of receptor were dissolved in the optimum concentration, and MTA was dissolved in the concentration of 7.5 mM, just before the using. 30 minutes before the treatment of the test compounds, the optimum concentration of each inhibitors or 0.75 mM of MTA was added, and the neuroprotective effect of the test compounds was determined by mean of MTT method.

The subject of assay [3] is cerebral edema (water content of cerebral hemisphere), Wistar rats. Kind of assay: Biological Test 5: cerebral edema suppressing effect. It is filed as in vivo. The note with it: iv, 144 h, rat, post-TBI day 6, read-out: Cerebral edema suppressing rate (%); for inhibition in vivo at 3 mg/kg: 3 mg/kg intravenously just after the operation; for inhibition in vivo at 1 mg/kg: 1 mg/kg intravenously just after the operation. As for the experimental part:
Adult male Wistar rats weighing 210–230 g were used in the present study and housed in an artificially controlled environment with 12-hour light/dark cycle. Animals were anesthetized with pentobarbital sodium (50 mg/kg of body weight, i.p., Nembutal, Dinabbott, Japan) and placed in a stereotaxic apparatus. The skull was exposed and a hole was made on the parietal bone; 1.5 mm posterior and 0.8 mm lateral to the bregma. All procedures were performed under a surgery microscope to avoid excess irritation to the meninges and the underlying brain. A brass screw with a blunt tip (1.0 mm in diameter and 3.0 mm in length, Biomedica, Japan) was inset in the hole. The screw tip protruding intracranially was approximately 2.5 mm, which stuck into the parietal part of the right cerebrum through the meninges. In sham-operated rats, scalp was closed without attaching a screw to the hole. After surgery, all rats were kept in their original dens until sacrifice. Rats were allowed to feed chow and water ad libitum.
Under anesthesia the rat cerebral hemispheres of the target were processed for water content on post-TBI day 6 (n=6). The cerebral hemispheres dissected out were weighed, dried for 24 hours at 110 degree (Celsius) and then weighed again. The subtracted amount of the wet and dry weights was regarded as tissue water of the target, and utilized for the analysis of the cerebral edema.
The water content was calculated by using the following formula:
Water content (%) =[(wet weight of hemisphere—dry weight of hemisphere)/wet weight of hemisphere]×100
The test compounds were intravenously administered just after the operation via tail vein of the rats.

In another assay the test system is CalbindinD-28k. Briefly: Biological Test 3: CalbindinD-28k inducing effect (western blot). It is filed as cell-based, rat. The note with it: control (none-treated) = 100. The method, then: Test compounds were added 5 days after initiation of the incubation, and after 7 days of incubation, the protein was extracted with homogenized buffer solution [containing 20 mm of Tris-HCl (pH=7.4), 1 mM of EDTA, and 0.1 mM of phenylmethyl-sulfonyl fluoride].
In the table, the amount of induced CalbindinD-28k of the control group (none-treated group) was 4indicated as 100 percents.
In general terms: A western blot detects proteins with antibodies after separation by electrophoresis.

Assay [4] has as its system primary cultures (neurons) from cerebral cortices of fetal Wistar rats. Kind of assay: Biological Test 4: neuroprotective inhibiting effect by calbindin antisense oligonucleotide (MTT). Type of assay: cell-based, rat. The note with it: 300 μM glutamic acid.

On to `Cc1c(C)c(OCC(=O)N(C)C2CCN(C[C@@H]3C[C@H]3c3ccccc3)CC2)c(C)c(C)c1N` (relative stereo) [Compound 13, 2-(4-Amino-2,3,5,6-tetramethylphenoxy)-N-methyl-N-[1-(trans-2-phenyl-1-cyclopropylmethyl)-4-piperidinyl]acetamide], for which the “Survival Rate (%) (Compound: 1 μl)” value in assay [1] came to 65%. The “Survival Rate (%) (Compound: 1 μl & MTA treatment)” value in assay [2] was determined as 13%. Also, the inhibition in vivo at 3 mg/kg in assay [3] is 13.1%.
In the case of `Cc1c(C)c(OCC(=O)N(C)C2CCN(CCc3ccccc3)CC2)c(C)c(C)c1N` [Compound 6, 2-(4-Amino-2,3,5,6-tetramethylphenoxy)-N-methyl-N-(1-phenethyl-4-piperidinyl)acetamide], the “Amount of induced CalbindineD-28k (% vs. control) (Compound: 1 μM)” value in the assay on CalbindinD-28k was 163 % vs. control. Besides, the “Survival Rate (%) (Compound: 1 μl)” value in assay [1] is reported as 54%. Moreover, the “Survival Rate (%) (Compound: 1 μl & MTA treatment)” value in assay [2] was found to be 25%. In assay [3], the inhibition in vivo at 3 mg/kg amounted to 24.9%. The “Survival Rate (%) [antisense (+): 5 μM]” value in assay [4] (0.1 μM) is on record as 30%; in assay [4] (1 μM), 34%. Also, the “Survival Rate (%) [antisense (−)]” value was determined as 103% in assay [4] (0.1 μM) and 108% in assay [4] (1 μM).
For `Cc1c(C)c(OCC(=O)N(C)C2CCN(C(=O)c3ccccc3)CC2)c(C)c(C)c1N` [Compound 8, 2-(4-Amino-2,3,5,6-tetramethylphenoxy)-N-(1-benzoyl-4-piperidinyl)-N-methylacetamide], the “Survival Rate (%) (Compound: 1 μl)” value in assay [1] was determined as 78%. The “Survival Rate (%) (Compound: 1 μl & MTA treatment)” value in assay [2] was found to be 24%. For the same molecule, the inhibition in vivo at 1 mg/kg in assay [3] was 14%.
For `Cc1c(C)c(OCC(=O)N(C)C2CCN(CC3CC3)CC2)c(C)c(C)c1N` [Compound 12, 2-(4-Amino-2,3,5,6-tetramethylphenoxy)-N-(1-cyclo-propylmethyl-4-piperidinyl)-N-methylacetamide], the “Survival Rate (%) (Compound: 1 μl)” value in assay [1] is 54%. Moreover, the “Survival Rate (%) (Compound: 1 μl & MTA treatment)” value in assay [2] was found to be 33%. For the same molecule, in assay [3], the inhibition in vivo at 3 mg/kg was 14.7%.
`Cc1c(C)c(OCC(=O)N(C)C2CCN(Cc3ccc(C#N)cc3)CC2)c(C)c(C)c1N` [Compound 18, 2-(4-Amino-2,3,5,6-tetramethylphenoxy)-N-[1-(4-cyano-benzyl)-4-piperidinyl]-N-methylacetamide]: the “Survival Rate (%) (Compound: 1 μl)” value in assay [1] is 91%. Further, in assay [2], the “Survival Rate (%) (Compound: 1 μl & MTA treatment)” value stood at 57%. In addition, the inhibition in vivo at 1 mg/kg in assay [3] stood at 22.1%.
For the molecule `CCCCN1CCC(N(C)C(=O)C(C)Oc2c(C)c(C)c(N)c(C)c2C)CC1` (centres unmarked) [Compound 24, 2-(4-Amino-2,3,5,6-tetramethylphenoxy)-N-(1-butyl-4-piperidinyl)-N-methylpropanamide], the “Survival Rate (%) (Compound: 1 μl)” value in assay [1] is on record as 61%. Besides, the “Survival Rate (%) (Compound: 1 μl & MTA treatment)” value in assay [2] turned out to be 22%. Also, the inhibition in vivo at 1 mg/kg in assay [3] was determined as 10.6%.
On to `Cc1c(C)c(OC(C)C(=O)N(C)C2CCN(CCN3CCOCC3)CC2)c(C)c(C)c1N` (centres unmarked) [Compound 25, 2-(4-Amino-2,3,5,6-tetramethylphenoxy)-N-methy-N-{1-[2-(4-morpholinyl)ethyl]-4-piperidinyl}proanamide], for which the “Survival Rate (%) (Compound: 1 μl)” value in assay [1] amounted to 87%. Also, in assay [2], the “Survival Rate (%) (Compound: 1 μl & MTA treatment)” value amounted to 16%. For the same molecule, the inhibition in vivo at 1 mg/kg in assay [3] came out at 19.1%.
